Results reported in BindingDB's records for doi:10.1124/jpet.102.047092 (Case Western Reserve University, 2003).
pKi: −log10 of the molar value. “And” between values parts separate entries of the source, which are not always exact repeats. Equal values may be shown once.

Legend:
Mu-type opioid receptor = Mu-type opioid receptor (Homo sapiens, UniProt P35372)
D(1A) dopamine receptor = D(1A) dopamine receptor (Homo sapiens, UniProt P21728)
[1] = target: T1, Alpha-2C adrenergic receptor (Homo sapiens, UniProt P18825)
T1 sequence (P18825 whole entry): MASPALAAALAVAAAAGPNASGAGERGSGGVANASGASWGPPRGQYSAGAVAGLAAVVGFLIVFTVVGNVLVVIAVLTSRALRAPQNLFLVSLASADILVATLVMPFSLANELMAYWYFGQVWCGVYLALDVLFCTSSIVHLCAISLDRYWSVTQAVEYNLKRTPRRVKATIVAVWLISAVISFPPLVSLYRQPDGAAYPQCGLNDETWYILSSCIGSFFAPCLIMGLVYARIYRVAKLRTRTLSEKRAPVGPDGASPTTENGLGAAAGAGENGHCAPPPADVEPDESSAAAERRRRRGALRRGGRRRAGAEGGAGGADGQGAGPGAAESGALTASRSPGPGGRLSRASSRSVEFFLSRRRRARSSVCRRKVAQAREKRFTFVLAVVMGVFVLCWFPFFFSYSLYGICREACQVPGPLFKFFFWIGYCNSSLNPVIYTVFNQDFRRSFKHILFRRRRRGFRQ

[2] = target: T2, 5-hydroxytryptamine receptor 1A (Homo sapiens, UniProt P08908)
T2 sequence (P08908 whole entry): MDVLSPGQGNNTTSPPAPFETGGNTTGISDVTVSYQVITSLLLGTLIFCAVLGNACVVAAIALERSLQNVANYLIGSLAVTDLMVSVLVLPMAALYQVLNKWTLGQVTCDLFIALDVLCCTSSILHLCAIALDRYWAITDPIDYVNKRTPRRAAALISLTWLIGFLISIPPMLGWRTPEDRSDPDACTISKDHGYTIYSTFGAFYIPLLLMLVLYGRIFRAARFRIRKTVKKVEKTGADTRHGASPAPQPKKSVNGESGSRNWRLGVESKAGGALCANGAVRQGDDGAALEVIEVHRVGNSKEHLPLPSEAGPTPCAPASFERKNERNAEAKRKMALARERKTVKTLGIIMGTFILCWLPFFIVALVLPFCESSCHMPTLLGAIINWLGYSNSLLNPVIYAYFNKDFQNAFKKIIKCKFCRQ

D(1B) dopamine receptor = D(1B) dopamine receptor (Homo sapiens, UniProt P21918)
Chain of D(1B) dopamine receptor (P21918 whole entry): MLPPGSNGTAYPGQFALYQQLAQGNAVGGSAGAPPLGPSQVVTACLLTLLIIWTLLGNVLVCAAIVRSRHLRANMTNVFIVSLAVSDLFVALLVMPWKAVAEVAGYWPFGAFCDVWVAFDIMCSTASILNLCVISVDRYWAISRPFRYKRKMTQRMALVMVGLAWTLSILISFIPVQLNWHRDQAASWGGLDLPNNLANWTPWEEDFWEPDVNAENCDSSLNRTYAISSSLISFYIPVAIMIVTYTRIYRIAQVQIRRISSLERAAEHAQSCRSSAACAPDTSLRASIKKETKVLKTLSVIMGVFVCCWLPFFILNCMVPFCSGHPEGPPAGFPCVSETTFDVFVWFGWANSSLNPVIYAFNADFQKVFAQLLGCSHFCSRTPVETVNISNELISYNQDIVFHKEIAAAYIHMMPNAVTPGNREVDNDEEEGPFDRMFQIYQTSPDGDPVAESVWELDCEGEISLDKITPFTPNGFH

[3] = target: Glutamate receptor ionotropic, NMDA 1 (Rattus norvegicus, UniProt P35439)
[4] = target: Kappa-type opioid receptor (Cavia porcellus, UniProt P41144)
Chain of Kappa-type opioid receptor (P41144 whole entry): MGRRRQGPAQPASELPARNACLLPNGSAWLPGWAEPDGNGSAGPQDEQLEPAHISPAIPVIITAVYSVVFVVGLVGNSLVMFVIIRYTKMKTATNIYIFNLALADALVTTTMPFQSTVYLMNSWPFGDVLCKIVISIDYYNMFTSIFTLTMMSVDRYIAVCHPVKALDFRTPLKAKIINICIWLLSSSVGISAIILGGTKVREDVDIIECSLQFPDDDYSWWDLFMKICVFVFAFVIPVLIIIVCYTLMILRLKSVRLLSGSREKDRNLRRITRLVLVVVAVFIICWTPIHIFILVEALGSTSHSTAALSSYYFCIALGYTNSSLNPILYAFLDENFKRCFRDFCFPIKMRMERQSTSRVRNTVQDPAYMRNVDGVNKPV

[5] = target: 5-hydroxytryptamine receptor 5A (Homo sapiens, UniProt P47898)
Chain of 5-hydroxytryptamine receptor 5A (P47898 whole entry): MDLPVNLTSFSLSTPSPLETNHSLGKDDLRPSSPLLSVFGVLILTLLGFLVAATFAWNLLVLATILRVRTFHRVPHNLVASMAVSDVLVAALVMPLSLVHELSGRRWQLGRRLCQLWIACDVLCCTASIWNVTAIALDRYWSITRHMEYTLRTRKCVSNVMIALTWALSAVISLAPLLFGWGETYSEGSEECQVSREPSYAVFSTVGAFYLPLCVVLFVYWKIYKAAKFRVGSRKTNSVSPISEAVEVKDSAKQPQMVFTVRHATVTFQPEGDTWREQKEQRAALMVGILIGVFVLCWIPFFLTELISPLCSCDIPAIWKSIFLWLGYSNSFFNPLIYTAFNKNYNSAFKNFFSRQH

[6] = target: T3, Muscarinic acetylcholine receptor M1 (Homo sapiens, UniProt P11229)
T3 sequence (P11229 whole entry): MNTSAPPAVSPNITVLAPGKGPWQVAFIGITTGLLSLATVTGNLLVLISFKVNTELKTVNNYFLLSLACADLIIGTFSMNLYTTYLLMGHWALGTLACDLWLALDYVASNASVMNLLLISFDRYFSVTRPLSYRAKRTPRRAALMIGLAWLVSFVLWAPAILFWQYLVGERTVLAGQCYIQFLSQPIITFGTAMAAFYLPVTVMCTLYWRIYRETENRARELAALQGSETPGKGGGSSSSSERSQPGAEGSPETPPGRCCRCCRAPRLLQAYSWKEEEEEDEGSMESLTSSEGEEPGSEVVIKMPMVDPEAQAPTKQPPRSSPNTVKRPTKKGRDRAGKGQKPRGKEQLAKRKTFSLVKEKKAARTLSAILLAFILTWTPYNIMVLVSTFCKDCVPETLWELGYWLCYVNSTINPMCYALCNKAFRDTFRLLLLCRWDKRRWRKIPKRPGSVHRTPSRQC

[7] = target: Sodium-dependent dopamine transporter (Homo sapiens, UniProt Q01959)
Chain of Sodium-dependent dopamine transporter (Q01959 whole entry): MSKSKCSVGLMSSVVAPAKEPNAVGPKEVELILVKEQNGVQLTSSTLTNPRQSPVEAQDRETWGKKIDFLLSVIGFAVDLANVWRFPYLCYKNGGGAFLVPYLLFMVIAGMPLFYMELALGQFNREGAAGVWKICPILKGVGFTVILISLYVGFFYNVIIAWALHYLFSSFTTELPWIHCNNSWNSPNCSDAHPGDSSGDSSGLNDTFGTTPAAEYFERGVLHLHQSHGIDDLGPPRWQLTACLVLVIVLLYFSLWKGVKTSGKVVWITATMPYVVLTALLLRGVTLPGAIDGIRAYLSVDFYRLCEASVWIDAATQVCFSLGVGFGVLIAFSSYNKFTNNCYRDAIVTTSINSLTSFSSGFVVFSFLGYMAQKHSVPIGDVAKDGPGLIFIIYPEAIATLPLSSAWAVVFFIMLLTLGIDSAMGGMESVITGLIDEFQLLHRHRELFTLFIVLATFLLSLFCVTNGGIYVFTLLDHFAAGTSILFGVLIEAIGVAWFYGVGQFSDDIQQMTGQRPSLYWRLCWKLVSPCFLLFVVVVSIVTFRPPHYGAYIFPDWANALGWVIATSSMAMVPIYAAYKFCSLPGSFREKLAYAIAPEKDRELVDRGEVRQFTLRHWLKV

[8] = target: T4, Alpha-2A adrenergic receptor (Homo sapiens, UniProt P08913)
T4 sequence (P08913 whole entry): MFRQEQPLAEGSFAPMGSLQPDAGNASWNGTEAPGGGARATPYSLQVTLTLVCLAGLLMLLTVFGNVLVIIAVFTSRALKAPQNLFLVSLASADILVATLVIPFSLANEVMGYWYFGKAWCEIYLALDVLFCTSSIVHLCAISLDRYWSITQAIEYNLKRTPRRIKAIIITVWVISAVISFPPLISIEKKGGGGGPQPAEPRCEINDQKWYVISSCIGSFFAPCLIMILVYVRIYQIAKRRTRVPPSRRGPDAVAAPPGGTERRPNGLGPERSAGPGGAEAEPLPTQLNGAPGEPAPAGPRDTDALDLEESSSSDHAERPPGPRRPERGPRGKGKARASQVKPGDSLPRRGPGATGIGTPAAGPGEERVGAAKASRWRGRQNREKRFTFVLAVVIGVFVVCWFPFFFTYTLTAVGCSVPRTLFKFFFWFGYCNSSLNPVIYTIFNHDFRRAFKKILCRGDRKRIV

[9] = target: Muscarinic acetylcholine receptor M3 (Homo sapiens, UniProt P20309)
Chain of Muscarinic acetylcholine receptor M3 (P20309 whole entry): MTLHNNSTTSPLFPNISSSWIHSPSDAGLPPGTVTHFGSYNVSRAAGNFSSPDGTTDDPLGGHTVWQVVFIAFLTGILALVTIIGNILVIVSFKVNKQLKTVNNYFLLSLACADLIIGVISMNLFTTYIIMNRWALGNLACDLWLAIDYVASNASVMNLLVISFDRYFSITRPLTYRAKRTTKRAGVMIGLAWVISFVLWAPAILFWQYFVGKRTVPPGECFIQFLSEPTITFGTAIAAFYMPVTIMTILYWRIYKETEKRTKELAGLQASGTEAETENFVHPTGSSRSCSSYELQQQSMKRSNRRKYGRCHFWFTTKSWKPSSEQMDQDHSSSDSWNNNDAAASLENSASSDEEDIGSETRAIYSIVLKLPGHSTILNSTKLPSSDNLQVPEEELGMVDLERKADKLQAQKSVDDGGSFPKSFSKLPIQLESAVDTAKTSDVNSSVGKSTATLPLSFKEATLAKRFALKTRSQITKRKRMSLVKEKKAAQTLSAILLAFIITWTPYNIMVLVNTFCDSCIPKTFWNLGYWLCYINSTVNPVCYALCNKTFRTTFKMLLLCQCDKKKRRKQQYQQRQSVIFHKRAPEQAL

Chain of D(1A) dopamine receptor (P21728 whole entry): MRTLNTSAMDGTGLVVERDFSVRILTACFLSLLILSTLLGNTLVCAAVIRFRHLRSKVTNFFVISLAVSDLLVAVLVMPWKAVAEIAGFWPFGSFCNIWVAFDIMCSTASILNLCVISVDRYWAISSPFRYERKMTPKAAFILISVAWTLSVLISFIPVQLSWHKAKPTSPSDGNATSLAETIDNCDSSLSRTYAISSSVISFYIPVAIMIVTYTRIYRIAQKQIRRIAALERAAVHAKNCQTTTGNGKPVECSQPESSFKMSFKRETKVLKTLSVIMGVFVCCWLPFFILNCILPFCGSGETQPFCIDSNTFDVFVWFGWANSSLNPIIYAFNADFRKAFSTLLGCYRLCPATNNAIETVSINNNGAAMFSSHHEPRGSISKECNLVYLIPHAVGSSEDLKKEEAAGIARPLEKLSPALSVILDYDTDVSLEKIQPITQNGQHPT
Chain of Mu-type opioid receptor (P35372 whole entry): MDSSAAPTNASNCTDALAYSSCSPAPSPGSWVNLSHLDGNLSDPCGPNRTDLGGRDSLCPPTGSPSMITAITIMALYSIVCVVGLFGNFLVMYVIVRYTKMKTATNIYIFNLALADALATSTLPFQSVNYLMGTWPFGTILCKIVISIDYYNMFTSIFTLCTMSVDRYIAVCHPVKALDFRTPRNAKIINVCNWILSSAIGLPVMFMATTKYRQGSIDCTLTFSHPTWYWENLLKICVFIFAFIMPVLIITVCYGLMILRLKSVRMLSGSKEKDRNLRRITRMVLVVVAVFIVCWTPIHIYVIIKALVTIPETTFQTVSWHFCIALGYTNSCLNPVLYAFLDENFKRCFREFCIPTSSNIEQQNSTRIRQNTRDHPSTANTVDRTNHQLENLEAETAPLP

SMILES | pKi (Mu-type opioid receptor) | pKi (D(1A) dopamine receptor) | pKi [1] | pKi [2] | pKi (D(1B) dopamine receptor) | pKi [3] | pKi [4] | pKi [5] | pKi [6] | pKi [7] | pKi [8] | pKi [9]
N[C@@H]1CCSC1=O [D-homocysteine thiolactone] | < 5.00 | < 5.00 | < 5.00 | < 5.00 | < 5.00 | < 5.00 | < 5.00 | < 5.00 | < 5.00 | < 5.00 | < 5.00 | < 5.00
NC(CS(=O)O)C(=O)O (centres undefined) [CAS_109] | < 5.00 | < 5.00 | < 5.00 | < 5.00 | < 5.00 | < 5.00 | < 5.00 | < 5.00 | < 5.00 | < 5.00 | < 5.00 | < 5.00
N[C@@H](CCS(=O)(=O)O)C(=O)O (racemic) | < 5.00 | < 5.00 | < 5.00 | < 5.00 | < 5.00 | < 5.00 | < 5.00 | < 5.00 | < 5.00 | < 5.00 | < 5.00 | < 5.00
NC(CSSCC(N)C(=O)O)C(=O)O (centres undefined) [CAS_595] | < 5.00 | < 5.00 | < 5.00 | < 5.00 | < 5.00 | < 5.00 and 5.49 | < 5.00 | < 5.00 | < 5.00 | < 5.00 | < 5.00 | < 5.00
N[C@@H](CCS(=O)O)C(=O)O [L-homocysteine sulfinic acid] | < 5.00 | < 5.00 | < 5.00 | < 5.00 | < 5.00 | < 5.00 | < 5.00 | < 5.00 | < 5.00 | < 5.00 | < 5.00 | < 5.00
N[C@H]1CCSC1=O [NSC_134505] | < 5.00 | < 5.00 | < 5.00 | < 5.00 | < 5.00 | < 5.00 | < 5.00 | < 5.00 | < 5.00 | < 5.00 | < 5.00 | < 5.00
N[C@@H](CCS)C(=O)O (racemic) [CAS_778] | < 5.00 | < 5.00 | < 5.00 | < 5.00 | < 5.00 | < 5.00 | < 5.00 | < 5.00 | < 5.00 | < 5.00 | < 5.00 | < 5.00

Other lines, results leading:

pKi (Mu-type opioid receptor) | pKi (D(1A) dopamine receptor) | pKi [1] | pKi [2] | pKi (D(1B) dopamine receptor) | pKi [3] | pKi [4] | pKi [5] | pKi [6] | pKi [7] | pKi [8] | pKi [9] | SMILES
< 5.00 | < 5.00 | < 5.00 | < 5.00 | < 5.00 | < 5.00 | < 5.00 | < 5.00 | < 5.00 | < 5.00 | < 5.00 | < 5.00 | N[C@H](CCS(=O)O)C(=O)O [D-homocysteine sulfinic acid]
< 5.00 | < 5.00 | < 5.00 | < 5.00 | < 5.00 | < 5.00 | < 5.00 | < 5.00 | < 5.00 | < 5.00 | < 5.00 | < 5.00 | N[C@@H](CS)C(=O)O [CAS_5862]
< 5.00 | < 5.00 | < 5.00 | < 5.00 | < 5.00 | < 5.00 | < 5.00 | < 5.00 | < 5.00 | < 5.00 | < 5.00 | < 5.00 | N[C@H](CS(=O)(=O)O)C(=O)O [L-cysteic acid]
< 5.00 | < 5.00 | < 5.00 | < 5.00 | < 5.00 | < 5.00 | < 5.00 | < 5.00 | < 5.00 | < 5.00 | < 5.00 | < 5.00 | N[C@H](CCS(=O)(=O)O)C(=O)O [D-homocysteic acid]
< 5.00 | < 5.00 | < 5.00 | < 5.00 | < 5.00 | < 5.00 | < 5.00 | < 5.00 | < 5.00 | < 5.00 | < 5.00 | < 5.00 | CSCC[C@@H](N)C(=O)O [CAS_6137]
